Results: patent US9029414B2, “Triterpenoid compounds and methods of use thereof” (Biotechnology Research Corporation, priority 2008, dated 2015)

Key:
[1] = tested on: BALB/c mice; assay: Murine model of oxazolone-induced ear edema; type: in vivo; details: topical, positive control
Experimental: This is a contract research performed by Washington Biotechnology Inc., Columbia, Md., protocol 1041. On day 0, 42 BALB/c mice (female, Harlan Sprague-Dawley, 5-6 weeks) were shaved on the ventral surface of the right ear. 100 μl of the 5% oxazolone solution (Sigma) was then applied to the saved ear. The treated mice were then returned to the cage and kept for additional 6 days. On day 7, the mice were weighed and dosed orally with 10 ml/kg water or DA021 at either 30 mg/kg or 100 mg/kg or topically applied on both sides of both ears with 25 μl betamethasone. Thirty minutes after oral dosing, 5 μl of 3% oxazolone was applied to both sides of the right ear and 5 μl of acetone was applied to both sides of the contralateral ear. Twenty-four hours after 3% oxazolone/acetone application, the mice were euthanized, the ears removed and weighed.
To evaluate the efficacy and potency of DA021 in acute inflammation, an oxazolone-induced ear edema model was carried out in mice. Oxazolone-induced ear edema model is a commonly used skin inflammatory animal model. Oxazolone (OA) is an allergen that induces immunological responses that lead to surface edema. […] Betamethasone (BMS) which was used as a positive control, is a corticosteroid that is used as an anti-itching cream and other anti-inflammatory remedies.
Mice were then treated with betamethasone (BMS, mg, topical) or DA021 (mg/kg, p.o.) and the ears were removed and weighed. N=10 per group, significance (p-value) was calculated versus OA+vehicle using the Student's T-test, *=P≦1×10^−7, #=P≦1×10^−12.

[2] = tested on: cortical neurons; assay: Cortical neuron survival assay against amyloid beta peptide excitotoxicity (MTT); type: cell-based, Sprague-Dawley rats; parameters: key: black bars represent compounds with strong protective effect; striped bars represent compounds with moderate effect; light-dotted bars represent compounds without or with effect less than 25%; details: compounds 2 hours prior to co-treatment with Aβ25-35 (10 μM) 24 hours
Experimental: FIG. 14. Derivatives of DA001 protect the cortical neurons from Aβ25-35 excitotoxicity. Cortical neurons were incubated with compounds (at various [μM]) derived from of DA001 2 hours prior to co-treatment with Aβ25-35 (10 μM) for 24 hours. 3-(4,5-Dimethylthiazol-2-yl)-2,5-diphenyltetrazolium bromide (MTT) assay was performed 24 hours after Aβ25-35 treatment. Data are expressed as mean fold change±s.e.m. compared to solvent control (DMSO). Dark-dotted bar represents data without addition of Aβ25-35, open bar represents solvent control, black bars represent compounds with strong protective effect while striped bars represent compounds with moderate effect, light-dotted bars represent compounds without or with effect less than 25%. *=P<0.05, **=P<0.005.
Cortical neurons were prepared from embryonic day 18 Sprague-Dawley rats. After the cortices had been removed from the brain, isolated cells were plated onto Poly d-Lysine (PDL) (P0899, Sigma)-coated 48 well plates (150687, NUNC) at a density of 1×10^5 cell per well using Neurobasal Medium (NB) (21103-049, Gibco) with B27 supplement (17504-044, Gibco), penicillin/streptomycin (15140, Gibco) and 1 mM L-glutamine (25030, Gibco). The cell culture was incubated at 37° C. in a humidified atmosphere of 5% CO2 in air. Medium was changed to growth medium (Neurobasal Medium with penicillin/streptomycin and B27 supplement) after 3 hours. Half medium was changed with growth medium every 2-3 days to maintain the cells until day 7 in vitro (7 DIV). Serial dilutions of samples were prepared in growth medium and DMSO was used as vehicle control. For pre-treating part, half of the medium was removed from wells, and equal amount of diluted samples were replaced. Cells were then incubated for 2 hours at 37° C. in a humidified atmosphere of 5% CO2 in air. Cortical neurons were then incubated with DA001 derived compounds (at various concentrations in [μM]) together with Aβ25-35 (10 μM, Sigma) for 24 hours. Quantification of living cells are measured by MTT (3-(4,5-Dimethylthiazol-2-yl)-2,5-diphenyltetrazolium bromide, USB) assay performed 24 hours after Aβ25-35 treatment. Yellow MTT is reduced to purple formazan in the mitochondria of living cells. A solubilization solution [10% SDS (sodium dodecyl sulfate)/0.01 M hydrochloric acid] is added to dissolve the insoluble purple formazan product into a colored solution which was then quantified at wavelength 570 nm using a spectrophotometer (DYNEX Technologies).
A total of 90 derivatives of DA001 were synthesized, and their effect on cortical neurons survival against amyloid beta peptide (Aβ25-35) excitotoxicity was examined. […] Compounds with strong protective effect are DA002, DA005, DA007, DA016, DA018, DA019, DA042, DA044, DA060 and DA072.

[3] = tested on: C57BL/6 mice immunized with MOG; assay: Experimental autoimmune encephalomyelitis (EAE) behavioral scores; type: in vivo; details: 100 mg/kg oral daily from day of immunization
Experimental: FIG. 15 illustrates that DA001 improves the behavioral scores of mice with experimental autoimmune encephalomyelitis. C57BL/6 mice were immunized subcutaneously at both sides of their hind limbs with myelin oligodendrocyte glycoprotein (MOG)/Complete Freund's Adjuvant (CFA) kit (Hooke Laboratories) and performed as indicated in the manufacturer's instruction. Albumin/CFA kit (Hooke Laboratories) were used as an immunization control. Oral administration of DA001 at 100 mg/kg was given daily starting from the day of immunization. The vehicle (water) was given to mice injected with MOG or albumin daily via oral administration. Animals were weighed and monitored daily and behavioral impairment was quantified based on the clinical scale. The graph presented here is a composite of four separate EAE trials. **=p≦0.01.
FIG. 16 illustrates that DA002 improves the behavioral scores of mice with experimental autoimmune encephalomyelitis. C57BL/6 mice were immunized subcutaneously at both sides of their hind limbs with myelin oligodendrocyte glycoprotein (MOG)/Complete Freund's Adjuvant (CFA) kit (Hooke Laboratories) and performed as indicated in the manufacturer's instruction. […] Animals were weighed and monitored daily and behavioral impairment was quantified based on the clinical scale. *=p≦0.05.
C57BL/6 mice were immunized subcutaneously at both sides of their hind limbs with myelin oligodendrocyte glycoprotein (MOG)/Complete Freund's Adjuvant (CFA) kit (Hooke Laboratories) and performed as in manufacturer's instruction. […] Animals were weighed and monitored daily and behavioral impairment was quantified based on the clinical scale. […]
On day 0, six-week old male C57BL/6 mice (Hong Kong University of Science and Technology, Animal Care facility) were immunized with 100 μg of myelin oligodendrocyte glycoprotein peptide (MOG35-55)/complete Freund's Adjuvant (CFA) emulsion kit (Hooke Laboratories) was injected subcutaneously at both sides of the tail base. […] The animals were also weighed and the neurological impairment was quantified daily based on the previously published criteria. […]

[4] = tested on: LPS-induced TNF-α in serum; assay: Murine model of lipopolysaccharide-induced cytokine production; type: in vivo, Swiss-Webster mice; details: 10 mg/kg orally, positive control
Experimental: This is a contract research performed by Washington Biotechnology Inc., Columbia, Md., protocol 1077. Swiss-Webster mice (female, Harlan Sprague-Dawley, 5-6 weeks) were weighed and dosed orally with 10 ml/kg water, prednisolone at 10 mg/kg, or DA021 at 30 mg/kg or 100 mg/kg. Thirty minutes after oral dosing, lipopolysaccharides (LPS) at 2 mL/kg was injected. Two hours after LPS injection, the mice were anesthetized and exsanguinated into serum separator micro-container tubes. The blood was processed to serum. The serum samples were assayed for tumor necrosis factor-α (TNFα) concentration by ELISA (Pierce) according to the manufacturer's protocol.
Evaluation of the efficacy and potency of orally administered DA021 to inhibit the lipopolysaccharide (LPS)-induced release of tumor necrosis factor-α (TNF-α) in mice was carried out. LPS is a widely used endotoxin, isolated from the bacteria, E. coli in inducing acute inflammation in an organism. Prednisolone is a synthetic corticosteroid drug that is commonly used in inflammatory reactions. It is a broad range immunosuppressant. Based on FIG. 29, there was a marked increase in the amount of TNF-α in serum upon LPS treatment in mice.
Two hours after LPS injection, the serum was collected from the mice. The serum samples were assayed for tumor necrosis factor-α (TNFα) concentration by ELISA (Pierce) according to the manufacturer's protocol. N=10, significance was calculated versus LPS+vehicle using the Student's T-test, *=p≦0.05, #=p≦1×10^−4.

| Structure (SMILES) | protective effect against Aβ25-35 excitotoxicity [2] | other results |
| --- | --- | --- |
| C[C@H]1C[C@H]2[C@@H]3CCC4=CC(=O)C=C[C@]4(C)[C@@]3(F)[C@@H](O)C[C@]2(C)[C@@]1(O)C(=O)CO [Betamethasone, reference compound] | – | Change in Ear Weight (mg), Average [1]: 17.4 mg; Change in Ear Weight, % Inhibition [1]: 75.4% |
| C=C(C)[C@@H]1CC[C@]2(C(=O)O)CC[C@]3(C)C(CCC4[C@@]5(C)CC[C@H](O)[C@@](C)(CO)[C@@H]5CC[C@]43C)C12 (stereo partly shown) [DA002] | strong | EAE scores vs vehicle-treated EAE mice [3]: significant decrease in the EAE scores |
| C=C(C)[C@@H]1CC[C@]2(C(=O)O)CC[C@]3(C)C(CCC4[C@@]5(C)CC[C@H](OC(C)=O)[C@@](C)(CO)[C@@H]5CC[C@]43C)C12 (stereo partly shown) [DA007] | strong | – |
| C=C(C)[C@@H]1CC[C@]2(C(=O)O)CC[C@]3(C)C(CCC4[C@@]5(C)CCC(=O)[C@@](C)(COC(C)=O)[C@@H]5CC[C@]43C)C12 (stereo partly shown) [DA016] | strong | – |
| C=C(C)[C@@H]1CC[C@]2(C(=O)O)CC[C@]3(C)C(CCC4[C@@]5(C)CCC(=O)[C@@](C)(CO)[C@@H]5CC[C@]43C)C12 (stereo partly shown) [DA018] | strong | – |
| C=C(C)[C@@H]1CC[C@]2(C(=O)O)CC[C@]3(C)C(CCC4[C@@]5(C)CC/C(=N\O)[C@@](C)(CO)[C@@H]5CC[C@]43C)C12 (stereo partly shown) [DA019] | strong | – |
| C=C(C)[C@@H]1CC[C@]2(C(=O)NCc3ccccc3)CC[C@]3(C)C(CCC4[C@@]5(C)CC[C@H](O)[C@@](C)(CO)[C@@H]5CC[C@]43C)C12 (stereo partly shown) [DA042] | strong | – |
| C=C(C)[C@@H]1CC[C@]2(C(=O)O)CC[C@]3(C)C(CCC4[C@@]5(C)CC[C@H](O[C@@H]6OC[C@H](OC(C)=O)[C@H](OC(C)=O)[C@H]6O[C@@H]6O[C@@H](C)[C@H](OC(C)=O)[C@@H](OC(C)=O)[C@H]6OC(C)=O)[C@@](C)(COC(C)=O)[C@@H]5CC[C@]43C)C12 (stereo partly shown) [DA044] | strong | – |
| C=C(COC(C)=O)[C@@H]1CC[C@]2(C(=O)O)CC[C@]3(C)C(CC[C@@H]4[C@@]5(C)CC[C@H](OC(C)=O)[C@@](C)(COC(C)=O)[C@@H]5CC[C@]43C)[C@@H]12 (stereo partly shown) [DA060, 3,23,30-Triacetoxy-betulinic acid] | strong | – |
| C=C(CNCc1ccccc1)[C@@H]1CC[C@]2(C(=O)O)CC[C@]3(C)C(CC[C@@H]4[C@@]5(C)CC[C@H](OC(C)=O)[C@@](C)(COC(C)=O)[C@@H]5CC[C@]43C)[C@@H]12 (stereo partly shown) [DA072, 30-N-Benzylamino-3,23-diacetoxy-betulinic acid] | strong | – |
| C[C@]12C=CC(=O)C=C1CC[C@@H]1[C@@H]2[C@@H](O)C[C@@]2(C)[C@H]1CC[C@]2(O)C(=O)CO [Prednisolone, reference compound] | – | LPS-induced TNF-α level [4]: dramatically decreased |
